In PubChem BioAssay (NCI):
Several values for one entry are separate records, joined by “and”; a condition that tells them apart may be missing. Identical values can stand only once.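 1) Cells in 96-well plates. 2) Compound, 48 h, 5 concentrations. 3) Linear interpolation between surrounding doses. 4) Unreached endpoint = highest concentration. GI50: concentration for 50% inhibition of growth. TGI is the concentration that stops growth completely.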

What was measured:
Assay in all cases: DTP human tumour cell line panel, 48 h
[1] = test system: HCC-2998 colon
[2] = test system: UACC-257 melanoma
[3] = test system: KM12 colon
[4] = test system: NCI-H226 lung
[5] = test system: SR leukemia
[6] = test system: MDA-MB-435
[7] = test system: TK-10 renal
[8] = test system: SK-MEL-5 melanoma
[9] = test system: CCRF-CEM leukemia
[10] = test system: K-562 leukemia

Row | Structure (SMILES) | GI50 [1] | TGI [1] [µM] | GI50 [2] | TGI [2] | GI50 [3] | TGI [3] [µM] | GI50 [4] | TGI [4] [µM] | GI50 [5] | TGI [5] [µM] | GI50 [6] | TGI [6] [µM] | GI50 [7] | TGI [7] [µM] | GI50 [8] | TGI [8] | GI50 [9] | TGI [9] [µM] | GI50 [10] | TGI [10] [µM]
1 | COc1ccc(CNc2c3ccccc3nc3ccccc23)cc1OC | 2.28 µM | 8.76 | 2.73 µM | 8.22 µM | 3.65 µM | 15.5 | 2.25 µM | 7.04 | 1.34 µM | 7.2 | 2.93 µM | 10 | 2.34 µM | 8.44 | 1.87 µM | 3.64 µM | 2.82 µM | 19.2 | 2.34 µM | 25.2
2 | O=C(Nc1cccc(Cl)c1)c1cc2ccccc2cc1O | 3.9 µM and 3.39 µM | > 100 | 1.03 µM and 2.26 µM | 7.31 µM and 6.11 µM | 3.17 µM and 2.71 µM | > 100 | 4.65 µM and 2.68 µM | > 100 | 3.9 µM and 3.79 µM | > 100 | 2.38 µM and 2.02 µM | > 100 | 5.58 µM and 5.82 µM | > 100 | 1.24 µM and 0.661 µM | 4.15 µM and 2.5 µM | 5.58 µM and 8.61 µM | > 100 | 1.38 µM and 0.888 µM | > 100
3 | COc1ccc(/C=c2/sc3n(c2=O)C(c2ccc(OC)c(OC)c2)C2=C(N=3)c3cc(F)ccc3OC2)cc1 (stereo not drawn) |  | 21.2 | 35 µM | > 88.8 µM | 18.1 µM | > 79.2 | 9.17 µM | > 60.2 | 60.9 µM | > 100 | 14.1 µM | 41.1 | 29 µM | > 87.6 | 22.3 µM | > 62.4 µM | > 55.7 µM | > 100 | 19.9 µM | > 100
4 | Cc1sc2nc(NCCc3c[nH]c4ccc(Cl)cc34)[nH]c(=O)c2c1C | 2.39 µM | 5.71 | 2.14 µM | 6.34 µM | 2.17 µM | 5.54 | 3.18 µM | 17.4 | 1.81 µM | 8.52 | 3.31 µM | 11.3 | 3.5 µM | 11.5 | 1.98 µM | 3.88 µM | 2.63 µM | 14.2 | 3.03 µM | 10.7
5 | CCCS(=O)(=O)Nc1ccc(Nc2c3ccccc3nc3ccccc23)c(OC)c1 |  | 6.3 |  | 19.8 µM |  | 14.7 |  | 13 |  | 0.85 |  | 26.3 |  | 15.6 |  | 14.7 µM |  | 0.499 |  | > 42.7
6 | COc1ccc(-n2cc(-c3ccc(Cl)c(Cl)c3)nc2SCc2cccc(C#N)c2)cc1 | 79.1 µM | > 100 | 66.9 µM | > 100 µM | > 100 µM | > 100 | 77 µM | > 100 | > 100 µM | > 100 | 12.5 µM | > 100 | 44.6 µM | > 100 | 20.2 µM | > 100 µM | > 100 µM | > 100 | > 100 µM | > 100
7 | O/N=C\c1c(O)ccc2ccccc12 |  | > 100 |  | > 100 µM |  | > 100 |  | > 100 |  | 82.1 |  | > 100 |  | > 100 |  | > 100 µM |  | > 100 |  | > 100
8 | COc1cc2cn3c4ccc(O)cc4[nH]c(=O)c3c2cc1OC | 0.0307 µM | 1.61 | < 0.0212 µM | 0.419 µM | 0.0451 µM | 1.48 | 0.0374 µM | 16.8 | 0.0173 µM | 1.79 | < 0.01 µM | 0.0192 | 0.0453 µM | 1.97 | < 0.015 µM | 0.563 µM | 0.0224 µM |  | < 0.0117 µM | 1.68
9 | Nc1nc(Br)nc2c1ncn2C1CC(O)C(CO)O1 (stereo not drawn) | 4.55 µM | > 100 | 27.3 µM | > 100 µM | > 100 µM | > 100 | 25.2 µM | > 100 | 3.13 µM | > 22.4 | 11.6 µM | > 100 | > 100 µM | > 100 | 29.3 µM | > 100 µM | 0.204 µM | > 100 | > 24 µM | > 100
10 | CN1CCc2c(Sc3ccc(C(=O)NO)cc3)c3ccccc3n2C1 | 1.77 µM | 3.86 | 1.75 µM | 9.1 µM | 1.72 µM | 3.67 | 2.75 µM | 14.9 | 2.69 µM | 9.92 | 1.61 µM | 3.34 | 2.62 µM | 8.19 | 2.39 µM | 6.67 µM | 1.87 µM | > 24.9 | 2.91 µM | > 33
11 | O=C(O)c1cc(O)c2c(c1)C(C1c3cc(C(=O)O)cc(O)c3C(=O)c3c(OC4OC(CO)C(O)C(O)C4O)cccc31)c1cccc(OC3OC(CO)C(O)C(O)C3O)c1C2=O (stereo not drawn) | > 100 µM | > 100 | > 100 µM | > 100 µM | > 100 µM | > 100 | > 100 µM | > 100 | > 100 µM | > 100 | > 100 µM | > 100 | > 100 µM | > 100 | > 100 µM | > 100 µM | > 100 µM | > 100 | > 100 µM | > 100
12 | Cc1c[n+](Cc2ccc3ccccc3c2)cn1Cc1ccc2ccccc2c1 | 1.34 µM | 2.83 | 1.46 µM | 3.16 µM | 1.65 µM | 3.1 | 2.12 µM | 5.87 | 1.46 µM | 3.58 | 1.28 µM | 3.03 | 1.82 µM | 3.73 | 0.688 µM | 1.94 µM | 2.45 µM | 5.71 | 1.38 µM | 4.59
